# Source: paper PMC9196137 (SLAS discovery : advancing life sciences R & D, 2022)
# Molecular target: Mcm2–7 complex
# Test: thermal shift assay
# Assay type: binding, Saccharomyces cerevisiae
compound,measurement,value
"CNC(=O)c1cc2c(cn1)[nH]c1ccccc12 [CMA, β-carboline-3-carboxylic acid N-methylamide]",Kd,119 µM
